Results: ChEMBL document CHEMBL1201862, “PubChem BioAssay data set” (2004)
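Five concentrations, 48 hours, 96-well plates. At the GI50, growth is halved.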 Calls of active or inactive are those of the source. No stated cut-off is given here; in the data, active = GI50 up to about 1.1 µM and inactive = higher.

How the values were obtained:
Experiment in all cases: DTP human tumour cell line panel, 48 h
[1] = tested on: DMS-273
[2] = tested on: DMS-114
[3] = tested on: KM-20L2
[4] = tested on: DLD-1
[5] = tested on: XF498
[6] = tested on: SNB-78
[7] = tested on: M19-MEL
[8] = tested on: LXFL 529
[9] = tested on: RXF 631

Structure (SMILES) | GI50 [1] | GI50 [2] | GI50 [3] | GI50 [4] | GI50 [5] | GI50 [6] | GI50 [7] | GI50 [8] | GI50 [9]
Cc1c(C(=O)/C=C/c2ccc([N+](=O)[O-])cc2)[n+]([O-])c2ccccc2[n+]1[O-] | 57.3 µM (inactive) | 30.6 µM (inactive) | > 100 µM (inactive) | 42.7 µM (inactive) | > 100 µM (inactive) | 65.5 µM (inactive) | > 100 µM (inactive) | 29.2 µM (inactive) | 
COC(=O)[C@@]1(C)/C(=N/NS(=O)(=O)c2ccc(C)cc2)CCC[C@@H]1C |  | 24.3 µM (inactive) | > 100 µM (inactive) | 44.7 µM (inactive) |  | > 100 µM (inactive) | > 100 µM (inactive) | > 100 µM (inactive) | 
NCCCCNc1ccc2c(=O)[nH][nH]c(=O)c2c1 | > 100 µM (inactive) | > 100 µM (inactive) | > 100 µM (inactive) | > 100 µM (inactive) |  | > 100 µM (inactive) | > 100 µM (inactive) | > 100 µM (inactive) | 
CN1C(=O)CC2(C)c3cc(O)ccc3N(C)C12 (stereo unspecified) | > 100 µM (inactive) | 38.9 µM (inactive) | > 100 µM (inactive) | > 89.3 µM (inactive) | 17.3 µM (inactive) | > 67.3 µM (inactive) | 11.5 µM (inactive) | 27.8 µM (inactive) | > 100 µM (inactive)
CC[C@@]1(O)C(=O)OCc2c1cc1n(c2=O)Cc2cc3cc4c(cc3nc2-1)OCO4 | < 0.001 µM (active) | < 0.001 µM (active) | 0.0121 µM (active) | 0.0559 µM (active) | 0.0238 µM (active) | 0.376 µM (active) | 0.00787 µM (active) | 0.0107 µM (active) | 0.0143 µM (active)
Nc1cc2[nH]cnc2c(=O)[nH]1 [DEZAGUANINE] | 8.26 µM (inactive) | 97.7 µM (inactive) | 33.7 µM (inactive) | 13.9 µM (inactive) | 5.42 µM (inactive) | > 300 µM (inactive) | 181 µM (inactive) |  | 
O=C1C=CC(=O)C2=C1[C@@H](O)C1CC=CC3C(=O)O[C@@H]2C31 (stereo partly specified) | 21.9 µM (inactive) | 22.7 µM (inactive) | 23.5 µM (inactive) | 18.2 µM (inactive) | 22.1 µM (inactive) | > 42.7 µM (inactive) | 23.2 µM (inactive) | 15.6 µM (inactive) | 
CCc1nc(N)nc(C(=O)NCCNC(=O)c2nc(N)nc(CC)c2C)c1C | > 100 µM (inactive) | > 100 µM (inactive) | > 100 µM (inactive) | > 100 µM (inactive) | > 100 µM (inactive) | > 100 µM (inactive) | > 100 µM (inactive) | > 100 µM (inactive) | > 100 µM (inactive)
COc1ccc2nc(NC(=O)C(=O)C(C#N)c3ccc([N+](=O)[O-])cc3)sc2c1 (stereo unspecified) | > 100 µM (inactive) | 43.3 µM (inactive) | > 100 µM (inactive) | > 100 µM (inactive) |  | > 100 µM (inactive) | > 100 µM (inactive) | 23.6 µM (inactive) | 
CC(CCC(=O)O)c1ccc(Br)cc1 (stereo unspecified) | > 100 µM (inactive) | > 100 µM (inactive) | > 100 µM (inactive) | > 100 µM (inactive) |  | > 100 µM (inactive) | > 100 µM (inactive) | > 100 µM (inactive) | 
CC(C)C(Nc1c2ccccc2[n+](C)c2ccccc12)C(=O)O (stereo unspecified) | > 100 µM (inactive) | > 100 µM (inactive) | > 100 µM (inactive) | > 100 µM (inactive) | > 100 µM (inactive) | > 100 µM (inactive) | > 100 µM (inactive) | > 100 µM (inactive) | 
NC(=S)N1N=C2c3ccccc3CC[C@H]2[C@@H]1c1cccs1 | 10.8 µM (inactive) | 22.5 µM (inactive) | 23.9 µM (inactive) | 50.5 µM (inactive) | 37.2 µM (inactive) | 32.4 µM (inactive) | 19.9 µM (inactive) | 30.8 µM (inactive) | 
CCOC(C[C@H](O[Si](C)(C)C(C)(C)C)[C@H]1COC(=S)S1)OCC | 30.1 µM (inactive) | 36.7 µM (inactive) | 41.4 µM (inactive) |  | 27.2 µM (inactive) |  | 35.9 µM (inactive) | 33.1 µM (inactive) | 
O=C(CN1CCOCC1)Nc1nc(-c2ccc(Cl)cc2)cs1 | 17.5 µM (inactive) | 21.3 µM (inactive) |  | 33.1 µM (inactive) | 13.2 µM (inactive) | 25.2 µM (inactive) | 32.6 µM (inactive) |  | 
CC(=O)c1ccccc1NC(=O)C(=O)C(C(=O)c1ccc2ccccc2c1)C1OC(=O)c2ccccc21 (stereo unspecified) | 6.32 µM (inactive) | 7.98 µM (inactive) | 32.2 µM (inactive) | 12.2 µM (inactive) | 3.13 µM (inactive) | 9.4 µM (inactive) | 8.85 µM (inactive) | 9.79 µM (inactive) | 
CCCC[C@H](CCc1ccccc1)N(C(=O)OC)N1CCC[C@H]1COC | 18.7 µM (inactive) | 15.8 µM (inactive) | 15.1 µM (inactive) | 18.4 µM (inactive) | 14 µM (inactive) | 21.3 µM (inactive) | 20.1 µM (inactive) | 17.2 µM (inactive) | 16.9 µM (inactive)
NC1=NCN(C2OC(CO)C(O)C2O)C(=O)N1 (stereo unspecified) | 7.64 µM (inactive) | 19 µM (inactive) | 14.5 µM (inactive) | 6.52 µM (inactive) | 17.5 µM (inactive) | 36.9 µM (inactive) | 70.6 µM (inactive) |  | 
Cc1c2cc[n+](C)cc2c(C)c2c1[nH]c1ccc(Oc3ccccc3)cc12 | 0.387 µM (active) |  | 0.927 µM (active) | 1.3 µM (inactive) |  |  |  | 0.296 µM (active) | 
CCCc1nc(N)nc(C(=O)Nc2cccc(C(F)(F)F)c2)c1CC | > 100 µM (inactive) | > 100 µM (inactive) | > 100 µM (inactive) | > 100 µM (inactive) | > 100 µM (inactive) | > 100 µM (inactive) | > 100 µM (inactive) |  | 
CCCCC(N)CSSCC(N)CCCC (stereo unspecified) | 23.4 µM (inactive) | 17.7 µM (inactive) |  | 21.6 µM (inactive) | 20.3 µM (inactive) | 32.7 µM (inactive) | 26.2 µM (inactive) | 16.8 µM (inactive) | 
COc1cc2c(c(OC)c1OC)[C@@H]1CCCCC[C@@H]1CCC2=O | > 49.4 µM (inactive) | 29.4 µM (inactive) | > 90.8 µM (inactive) | 38.4 µM (inactive) | > 94 µM (inactive) |  | > 100 µM (inactive) | 58.7 µM (inactive) | > 100 µM (inactive)
O=S(=O)(c1ccccc1)n1cc(C[P+](c2ccccc2)(c2ccccc2)c2ccccc2)c2ccccc21 | 3.21 µM (inactive) | 3.37 µM (inactive) | 4.89 µM (inactive) | 2.46 µM (inactive) | 3.6 µM (inactive) | 5.71 µM (inactive) | 4.29 µM (inactive) | 1.48 µM (inactive) | 
CCN(CC)c1oc(N(CC)CC)c(C(=O)Nc2ccccn2)c(=O)c1C(C)=O | > 100 µM (inactive) | > 100 µM (inactive) | > 10 µM (inactive) | > 100 µM (inactive) | > 100 µM (inactive) | > 100 µM (inactive) | > 100 µM (inactive) | > 100 µM (inactive) | 
